The Kinase Knowledgebase extract (Sharma et al. 2016)

Legend:
[1] = molecular target: CDK2 (UniProt P24941); assay: Enzyme Assay
[2] = molecular target: CDK2 (human) (UniProt P24941); assay: Cell-Based Assay

Structure (SMILES)	IC50 [1]	IC50 ([2]; mda-mb-435)	IC50 ([2]; sw480)	IC50 ([2]; hct 116)
O=[N+]([O-])c1ccc2c(c1)C(c1ccccc1)=Nc1c(n[nH]c1-c1ncc[nH]1)N2	1000 to 9990 nM			
Cc1[nH]nc2c1N=C(c1ccccc1)c1cc(F)ccc1N2		10 to 1000 nM	1100 to 9990 nM	
O=[N+]([O-])c1ccc2c(c1)C(c1ccccc1Cl)=Nc1c(n[nH]c1-c1ccc(OC(F)(F)F)cc1)N2				10000 to 30000 nM
Cc1[nH]nc2c1N=C(c1ccccc1F)c1cc(C#N)ccc1N2		10 to 1000 nM	10 to 1000 nM	1100 to 9990 nM
CCOC(=O)c1ccc2c(c1)C(c1ccccc1F)=Nc1c(n[nH]c1C)N2		1100 to 9990 nM	1100 to 9990 nM	1100 to 9990 nM
C=Cc1[nH]nc2c1N=C(c1ccccc1Cl)c1cc([N+](=O)[O-])ccc1N2		10 to 1000 nM		
O=C(c1ccc2c(c1)C(c1ccccc1F)=Nc1c[nH]nc1N2)N1CCOCC1			10 to 1000 nM	10000 to 30000 nM
O=[N+]([O-])c1ccc2c(c1)C(c1ccccc1Cl)=Nc1c(n[nH]c1-c1ccccc1)N2			10000 to 30000 nM	10000 to 30000 nM
Cc1[nH]nc2c1N=C(c1ccccc1F)c1cc(C(=O)NCCN3CCOCC3)ccc1N2		1100 to 9990 nM	10 to 1000 nM	
O=[N+]([O-])c1ccc2c(c1)C(c1ccccc1Cl)=Nc1c(n[nH]c1-c1cccc(Oc3ccccc3)c1)N2	10000 to 30000 nM			
O=[N+]([O-])c1ccc2c(c1)C(c1ccccc1)=Nc1c[nH]nc1N2				10000 to 30000 nM
Cc1[nH]nc2c1N=C(c1ccccc1F)c1cc(I)ccc1N2			1100 to 9990 nM	
N#Cc1ccccc1-c1[nH]nc2c1N=C(c1ccccc1Cl)c1cc([N+](=O)[O-])ccc1N2	1000 to 9990 nM			
Cc1[nH]nc2c1N=C(c1ccccc1)c1cc([N+](=O)[O-])ccc1N2		10 to 1000 nM	10 to 1000 nM	
Cc1[nH]nc2c1N=C(c1ccccc1Cl)c1cc(NS(=O)(=O)NCCl)ccc1N2		1100 to 9990 nM	1100 to 9990 nM	
N#Cc1cccc(-c2[nH]nc3c2N=C(c2ccccc2Cl)c2cc([N+](=O)[O-])ccc2N3)c1	1000 to 9990 nM			
COC(=O)c1ccc2c(c1)C(c1ccccc1)=Nc1c[nH]nc1N2	1000 to 9990 nM			
CC(C)c1[nH]nc2c1N=C(c1ccccc1Cl)c1cc(N)ccc1N2		1100 to 9990 nM		
Cc1[nH]nc2c1N=C(c1ccccc1F)c1cc(C(=O)N3CCOCC3)ccc1N2		1100 to 9990 nM	10 to 1000 nM	
O=[N+]([O-])c1ccc2c(c1)C(c1ccccc1Cl)=Nc1c(n[nH]c1C1CC1)N2		10 to 1000 nM	1100 to 9990 nM	1100 to 9990 nM
Cc1[nH]nc2c1N=C(c1ccccc1F)c1cc(C(=O)NCCO)ccc1N2		1100 to 9990 nM	10 to 1000 nM	
NNC(=O)c1[nH]nc2c1N=C(c1ccccc1Cl)c1cc([N+](=O)[O-])ccc1N2			10000 to 30000 nM	1100 to 9990 nM

Structure (SMILES)	IC50 [1]	IC50 ([2]; mda-mb-435)	IC50 ([2]; sw480)	IC50 ([2]; hct 116)
COc1ccccc1-c1[nH]nc2c1N=C(c1ccccc1Cl)c1cc([N+](=O)[O-])ccc1N2	10000 to 30000 nM			
CC(C)Cc1[nH]nc2c1N=C(c1ccccc1Cl)c1cc([N+](=O)[O-])ccc1N2	1000 to 9990 nM			
Cc1[nH]nc2c1N=C(c1ccccc1C(F)(F)F)c1cc([N+](=O)[O-])ccc1N2			10 to 1000 nM	
CC(=O)Nc1ccc2c(c1)C(c1ccccc1Cl)=Nc1c(n[nH]c1C)N2		10 to 1000 nM	10 to 1000 nM	
Cn1cccc1-c1[nH]nc2c1N=C(c1ccccc1Cl)c1cc([N+](=O)[O-])ccc1N2	1000 to 9990 nM			
Cc1[nH]nc2c1N=C(c1ccccc1)c1cc(Br)ccc1N2			10000 to 30000 nM	
N#Cc1ccc2c(c1)C(c1ccccc1F)=Nc1c[nH]nc1N2		1100 to 9990 nM	1100 to 9990 nM	1100 to 9990 nM
Cc1[nH]nc2c1N=C(c1ccccc1F)c1cc(Cl)ccc1N2			1100 to 9990 nM	
Clc1ccc2c(c1)C(c1ccccc1)=Nc1c[nH]nc1N2	1000 to 9990 nM			
O=[N+]([O-])c1ccc2c(c1)C(c1ccccc1Cl)=Nc1c(n[nH]c1-c1cccc3ccccc13)N2			10000 to 30000 nM	10000 to 30000 nM
CCCc1[nH]nc2c1N=C(c1ccccc1Cl)c1cc([N+](=O)[O-])ccc1N2		10000 to 30000 nM	10000 to 30000 nM	10000 to 30000 nM
Cc1[nH]nc2c1N=C(c1ccccc1F)c1ccccc1N2		1100 to 9990 nM	10 to 1000 nM	
O=[N+]([O-])c1ccc2c(c1)C(c1ccccc1)=Nc1c(n[nH]c1-c1ccc3c(c1)OCCO3)N2	10000 to 30000 nM			
O=[N+]([O-])c1ccc2c(c1)C(c1ccccc1Cl)=Nc1c(n[nH]c1-c1ccco1)N2			10000 to 30000 nM	10000 to 30000 nM
O=C(O)c1ccc2c(c1)C(c1ccccc1)=Nc1c[nH]nc1N2	1000 to 9990 nM			
Cc1[nH]nc2c1N=C(c1ccccc1Cl)c1cc(NS(=O)(=O)N(C)C)ccc1N2		10 to 1000 nM	1100 to 9990 nM	
O=[N+]([O-])c1ccc2c(c1)C(c1ccccc1Cl)=Nc1c(n[nH]c1-c1cccnc1)N2			10000 to 30000 nM	10000 to 30000 nM
Cc1[nH]nc2c1N=C(c1ccccc1Cl)c1cc(Cl)ccc1N2		1100 to 9990 nM	1100 to 9990 nM	
O=C(O)c1ccc2c(c1)C(c1ccccc1F)=Nc1c[nH]nc1N2	1000 to 9990 nM			
CN(C)C(=O)c1[nH]nc2c1N=C(c1ccccc1Cl)c1cc([N+](=O)[O-])ccc1N2	1000 to 9990 nM			
O=[N+]([O-])c1ccc2c(c1)C(c1ccccc1F)=Nc1c[nH]nc1N2		10000 to 30000 nM	1100 to 9990 nM	10000 to 30000 nM
Clc1ccccc1C1=Nc2c[nH]nc2Nc2ccccc21			10000 to 30000 nM	10000 to 30000 nM

Structure (SMILES)	IC50 [1]	IC50 ([2]; mda-mb-435)	IC50 ([2]; sw480)	IC50 ([2]; hct 116)
O=[N+]([O-])c1ccc2c(c1)C(c1ccccc1)=Nc1c(n[nH]c1C1CC1)N2				10000 to 30000 nM
Cc1[nH]nc2c1N=C(c1ccccc1Cl)c1cc(NS(C)(=O)=O)ccc1N2		10 to 1000 nM	10 to 1000 nM	
O=[N+]([O-])c1ccc2c(c1)C(c1ccccc1)=Nc1c(n[nH]c1-c1ccccc1F)N2	10000 to 30000 nM			
Fc1ccccc1C1=Nc2c[nH]nc2Nc2ccc(Cl)cc21	1000 to 9990 nM			
O=[N+]([O-])c1ccc2c(c1)C(c1ccccc1Cl)=Nc1c(n[nH]c1-c1cc[nH]n1)N2		1100 to 9990 nM		
O=[N+]([O-])c1ccc2c(c1)C(c1ccccc1Cl)=Nc1c(n[nH]c1-c1cccc(O)c1)N2	1000 to 9990 nM			
COc1cc(O)ccc1-c1[nH]nc2c1N=C(c1ccccc1Cl)c1cc([N+](=O)[O-])ccc1N2				10000 to 30000 nM
O=C(NCCO)c1ccc2c(c1)C(c1ccccc1F)=Nc1c[nH]nc1N2				10000 to 30000 nM
CC(C)c1[nH]nc2c1N=C(c1ccccc1Cl)c1cc([N+](=O)[O-])ccc1N2		10 to 1000 nM	10 to 1000 nM	1100 to 9990 nM
Cc1[nH]nc2c1N=C(c1ccccc1)c1cc(Cl)ccc1N2		1100 to 9990 nM	1100 to 9990 nM	
O=[N+]([O-])c1ccc2c(c1)C(c1ccccc1Cl)=Nc1c(n[nH]c1-c1ccsc1)N2	10 to 990 nM			
N#Cc1[nH]nc2c1N=C(c1ccccc1Cl)c1cc([N+](=O)[O-])ccc1N2		10000 to 30000 nM		
Cc1[nH]nc2c1N=C(c1ccccc1Cl)c1cc([N+](=O)[O-])ccc1N2		10 to 1000 nM	10 to 1000 nM	10 to 1000 nM
CCc1ccc(-c2[nH]nc3c2N=C(c2ccccc2Cl)c2cc([N+](=O)[O-])ccc2N3)o1	1000 to 9990 nM			
CN(C)c1ccc(-c2[nH]nc3c2N=C(c2ccccc2Cl)c2cc([N+](=O)[O-])ccc2N3)cc1	1000 to 9990 nM			
CCOc1cccc(-c2[nH]nc3c2N=C(c2ccccc2Cl)c2cc([N+](=O)[O-])ccc2N3)c1	1000 to 9990 nM			
O=[N+]([O-])c1ccc2c(c1)C(c1ccccc1Cl)=Nc1c(n[nH]c1C(F)(F)F)N2		1100 to 9990 nM		
NC(=O)c1ccc2c(c1)C(c1ccccc1F)=Nc1c[nH]nc1N2			1100 to 9990 nM	1100 to 9990 nM
CCc1[nH]nc2c1N=C(c1ccccc1Cl)c1cc([N+](=O)[O-])ccc1N2		10 to 1000 nM	10 to 1000 nM	10 to 1000 nM
C=CC(=O)Nc1ccc2c(c1)C(c1ccccc1Cl)=Nc1c(n[nH]c1C)N2		10 to 1000 nM	10 to 1000 nM	
O=[N+]([O-])c1ccc2c(c1)C(c1ccccc1Cl)=Nc1c(n[nH]c1CO)N2		10 to 1000 nM	10 to 1000 nM	
Cc1[nH]nc2c1N=C(c1ccccc1F)c1cc(F)ccc1N2			10 to 1000 nM	

Structure (SMILES)	IC50 [1]	IC50 ([2]; mda-mb-435)	IC50 ([2]; sw480)	IC50 ([2]; hct 116)
O=Cc1[nH]nc2c1N=C(c1ccccc1Cl)c1cc([N+](=O)[O-])ccc1N2		10 to 1000 nM		
Cc1[nH]nc2c1N=C(c1ccccc1F)c1cc(C(N)=O)ccc1N2			10 to 1000 nM	
N#Cc1ccc2c(c1)C(c1ccccc1F)=Nc1c(n[nH]c1CO)N2		10 to 1000 nM	10 to 1000 nM	
O=[N+]([O-])c1ccc2c(c1)C(c1ccccc1Cl)=Nc1c(n[nH]c1-c1cccc3c1OCO3)N2				10000 to 30000 nM
O=[N+]([O-])c1ccc2c(c1)C(c1ccccc1Cl)=Nc1c(n[nH]c1-c1cncc3ccccc13)N2				10000 to 30000 nM
CSc1ccc(-c2[nH]nc3c2N=C(c2ccccc2Cl)c2cc([N+](=O)[O-])ccc2N3)cc1				10000 to 30000 nM
COCc1[nH]nc2c1N=C(c1ccccc1Cl)c1cc([N+](=O)[O-])ccc1N2		1100 to 9990 nM		
O=[N+]([O-])c1ccc2c(c1)C(c1ccccc1Cl)=Nc1c(n[nH]c1-c1ccncc1)N2			10000 to 30000 nM	10000 to 30000 nM
Cc1[nH]nc2c1N=C(c1ccccc1Cl)c1cc(NS(=O)(=O)N3CCOCC3)ccc1N2		1100 to 9990 nM	1100 to 9990 nM	
O=[N+]([O-])c1ccc2c(c1)C(c1ccccc1Cl)=Nc1c[nH]nc1N2		10000 to 30000 nM	1100 to 9990 nM	10000 to 30000 nM
O=[N+]([O-])c1ccc2c(c1)C(c1ccccc1Cl)=Nc1c(n[nH]c1-c1c[nH]cn1)N2		1100 to 9990 nM		
NC(=O)c1[nH]nc2c1N=C(c1ccccc1Cl)c1cc([N+](=O)[O-])ccc1N2		10000 to 30000 nM		
CN(C)Cc1[nH]nc2c1N=C(c1ccccc1Cl)c1cc([N+](=O)[O-])ccc1N2		10000 to 30000 nM		
Cc1cn[nH]c1-c1[nH]nc2c1N=C(c1ccccc1Cl)c1cc([N+](=O)[O-])ccc1N2		1100 to 9990 nM	10 to 1000 nM	1100 to 9990 nM
COc1ccc2c(c1)C(c1ccccc1Cl)=Nc1c(n[nH]c1C)N2		1100 to 9990 nM	1100 to 9990 nM	
O=[N+]([O-])c1ccc2c(c1)C(c1ccccc1Cl)=Nc1c(n[nH]c1-c1nccs1)N2		10000 to 30000 nM		
Cc1[nH]nc2c1N=C(c1ccccc1Cl)c1cc(N)ccc1N2		10 to 1000 nM	10 to 1000 nM	
Cc1[nH]nc2c1N=C(c1ccccc1Cl)c1ccccc1N2		1100 to 9990 nM	1100 to 9990 nM	
Cc1[nH]nc2c1N=C(c1ccccc1F)c1cc([N+](=O)[O-])ccc1N2		10 to 1000 nM	10 to 1000 nM	
O=[N+]([O-])c1ccc2c(c1)C(c1ccccc1Cl)=Nc1c(n[nH]c1-c1ccc[nH]1)N2			1100 to 9990 nM	1100 to 9990 nM
